The target in one assay is T1, PTP1B (Homo sapiens, UniProt P18031).
T1 construct: using the catalytic core of a human recombinant PTP as the enzyme; made in house
T1 sequence (P18031 3-277 limits assumed): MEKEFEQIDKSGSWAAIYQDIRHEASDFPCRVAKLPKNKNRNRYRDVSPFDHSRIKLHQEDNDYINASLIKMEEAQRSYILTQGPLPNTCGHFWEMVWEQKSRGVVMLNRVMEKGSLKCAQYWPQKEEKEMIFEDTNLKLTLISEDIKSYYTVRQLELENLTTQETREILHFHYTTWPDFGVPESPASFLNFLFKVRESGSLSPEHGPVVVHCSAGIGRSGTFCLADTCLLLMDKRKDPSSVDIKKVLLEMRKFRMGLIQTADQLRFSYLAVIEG
The experiment in a line: PTP Enzyme Assay (DiFMUP), PTP1B. It is filed as biochemical. The note with it: 5 μM DiFMUP, catalytic core of human recombinant PTP; read-out: IC50 value in respect of PTP1B. How it is done: The PTP Enzyme Assay aims at determining the extent of inhibition of PTP's, e.g. of PTP1B, SEP-1, SHP-2, GLEPP-1 or PTP-H1 in the presence of a test compound of lo formula (I). The inhibition is illustrated by IC50 values which denote the concentration of test compound necessary to achieve an inhibition of 50% of said PTP's using the following concentration of the PTP substrate DiFMUP: • 5 μM DiFMUP for PTP1B and PTP-H1; • 20 μM DiFMUP for SHP-1 and SHP-2; • 30 μM DiFMUP for GLEPP-1. a) PTPs Cloning
The cloning and expression of the catalytic domain e.g. of PTP1B, may be performed as described in J. Biol. Chem. 2000, 275(13), pp 9792-9796.
(§1) The DiFMUP assay allows to follow the dephosphorylation of DiFMUP (6,8-DiFluoro-4-MethylUmbelliferyl Phosphate)—which is the PTP substrate—mediated by PTP into its stable hydrolysis product, i.e. DiFMU (6,8-difluoro-7-hydroxy coumarin). Due to its rather low pKa and its high quantum yield, DiFMU allows to measure both acidic and alkaline phosphatase activities with a great sensitivity.
(§2) Assays were performed in a 96 well plate format, using the catalytic core of a human recombinant PTP as the enzyme and 6,8-DiFluoro-4-MethylUmbelliferyl Phosphate (DiFMUP, Molecular Probes, D-6567) as a substrate. Compounds to be tested were dissolved in 100% DMSO at a concentration of 2 mM. Subsequent dilutions of the test compounds (to yield a concentration of 100, 30, 10, 3, 1,0.3, 0.1, 0.03, 0.01, 0.001 μM) were performed in 60% DMSO manually. 8 μl of diluted compound or vehicle (60% DMSO=control) was distributed to a black Costar 96 well plate. […] The reaction ran for 30 minutes at room temperature before reading the fluorescence intensity (integral or intensity) on a Perkin-Elmer Victor 2 spectrofluorimeter (excitation of 6,8-difluoro-7-hydroxy coumarin is at 355 nm, the emission at 460 nm, for 0.1 s). The percentage of inhibition is determined by measuring the relative fluorescence ion absence of a test compound (PTP inhibitor), i.e. with the solvent alone (5% DMSO). The IC50 values for inhibition were determined in triplicates.

The next assay concerns the target T2, GLEPP-1 (Homo sapiens, UniProt Q16827).
T2 construct: using the catalytic core of a human recombinant PTP as the enzyme; made in house
T2 sequence (Q16827 938-1195 limits assumed): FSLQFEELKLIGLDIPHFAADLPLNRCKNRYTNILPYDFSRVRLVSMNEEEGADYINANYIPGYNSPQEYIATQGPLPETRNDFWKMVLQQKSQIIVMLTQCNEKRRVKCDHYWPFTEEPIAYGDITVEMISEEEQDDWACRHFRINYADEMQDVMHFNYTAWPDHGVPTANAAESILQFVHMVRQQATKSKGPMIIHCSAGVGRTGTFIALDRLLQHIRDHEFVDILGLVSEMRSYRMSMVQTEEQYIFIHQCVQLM
In words: PTP Enzyme Assay (DiFMUP), GLEPP-1. Type of assay: biochemical.
Source text: The PTP Enzyme Assay aims at determining the extent of inhibition of PTP's, e.g. of PTP1B, SEP-1, SHP-2, GLEPP-1 or PTP-H1 in the presence of a test compound of lo formula (I).
as §1
Compounds to be tested were dissolved in 100% DMSO at a concentration of 2 mM. Subsequent dilutions of the test compounds (to yield a concentration of 100, 30, 10, 3, 1,0.3, 0.1, 0.03, 0.01, 0.001 μM) were performed in 60% DMSO manually. 8 μl of diluted compound or vehicle (60% DMSO=control) was distributed to a black Costar 96 well plate. 42 μl of human recombinant PTP enzyme diluted in assay buffer (20 mM Tris HCl pH 7.5, 0.01% IGEPAL CA-630, 0.1 mM ethylenediaminetetracetic acid, 1 mM DL-Dithiothreitol) can be added to the dilutions of compound or vehicule (distributed to a black Costar 96-well plate), followed by 50 μl of DiFMUP diluted in the assay buffer. The reaction ran for 30 minutes at room temperature before reading the fluorescence intensity (integral or intensity) on a Perkin-Elmer Victor 2 spectrofluorimeter (excitation of 6,8-difluoro-7-hydroxy coumarin is at 355 nm, the emission at 460 nm, for 0.1 s). The percentage of inhibition is determined by measuring the relative fluorescence ion absence of a test compound (PTP inhibitor), i.e. with the solvent alone (5% DMSO). The IC50 values for inhibition were determined in triplicates.

A further assay concerns the target T3, SHP-1 (Homo sapiens, UniProt P29350).
T3 construct: using the catalytic core of a human recombinant PTP as the enzyme; made in house
T3 sequence (P29350 244-515 limits assumed): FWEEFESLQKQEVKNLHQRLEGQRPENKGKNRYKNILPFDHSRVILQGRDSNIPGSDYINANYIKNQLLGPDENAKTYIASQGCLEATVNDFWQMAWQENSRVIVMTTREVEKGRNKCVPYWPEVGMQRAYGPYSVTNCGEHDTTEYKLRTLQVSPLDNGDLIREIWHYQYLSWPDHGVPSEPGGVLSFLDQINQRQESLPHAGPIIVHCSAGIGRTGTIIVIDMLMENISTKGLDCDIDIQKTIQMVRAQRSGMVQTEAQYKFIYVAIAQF
In words: PTP Enzyme Assay (DiFMUP), SHP-1. It is filed as biochemical. The note with it: 20 μM DiFMUP, catalytic core of human recombinant PTP; read-out: IC50 value in respect of SHP-1. How it is done: (§3) The PTP Enzyme Assay aims at determining the extent of inhibition of PTP's, e.g. of PTP1B, SEP-1, SHP-2, GLEPP-1 or PTP-H1 in the presence of a test compound of lo formula (I). The inhibition is illustrated by IC50 values which denote the concentration of test compound necessary to achieve an inhibition of 50% of said PTP's using the following concentration of the PTP substrate DiFMUP: • 5 μM DiFMUP for PTP1B and PTP-H1; • 20 μM DiFMUP for SHP-1 and SHP-2; • 30 μM DiFMUP for GLEPP-1. a) PTPs Cloning […]
as §2, with “substrate.” for “substrate. Compounds to be tested were dissolved in 100% DMSO at a concentration of 2 mM. Subsequent dilutions of the test compounds (to yield a concentration of 100, 30, 10, 3, 1,0.3, 0.1, 0.03, 0.01, 0.001 μM) were performed in 60% DMSO manually. 8 μl of diluted compound or vehicle (60% DMSO=control) was distributed to a black Costar 96 well plate.”

Another assay deals with T4, SHP-2 (Homo sapiens, UniProt Q06124).
T4 construct: using the catalytic core of a human recombinant PTP as the enzyme; made in house
T4 sequence (Q06124 247-517 limits assumed): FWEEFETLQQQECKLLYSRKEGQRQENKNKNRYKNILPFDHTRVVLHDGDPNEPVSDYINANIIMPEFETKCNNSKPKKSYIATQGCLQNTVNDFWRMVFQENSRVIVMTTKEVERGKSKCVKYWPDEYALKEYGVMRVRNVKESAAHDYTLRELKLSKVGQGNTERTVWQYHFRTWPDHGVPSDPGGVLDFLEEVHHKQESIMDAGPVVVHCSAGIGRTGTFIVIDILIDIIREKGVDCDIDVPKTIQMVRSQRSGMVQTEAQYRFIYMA
The experiment in a line: PTP Enzyme Assay (DiFMUP), SHP-2. Type of assay: biochemical. The conditions noted are these: 20 μM DiFMUP, catalytic core of human recombinant PTP; read-out: IC50 value in respect of SHP-2. The protocol: as §3
as §2, with “substrate.” for “substrate. Compounds to be tested were dissolved in 100% DMSO at a concentration of 2 mM. Subsequent dilutions of the test compounds (to yield a concentration of 100, 30, 10, 3, 1,0.3, 0.1, 0.03, 0.01, 0.001 μM) were performed in 60% DMSO manually. 8 μl of diluted compound or vehicle (60% DMSO=control) was distributed to a black Costar 96 well plate.”

In the next assay the target is T5, PTP-H1 (Homo sapiens, UniProt P26045).
T5 construct: using the catalytic core of a human recombinant PTP as the enzyme; made in house
T5 sequence (P26045 646-901 limits assumed): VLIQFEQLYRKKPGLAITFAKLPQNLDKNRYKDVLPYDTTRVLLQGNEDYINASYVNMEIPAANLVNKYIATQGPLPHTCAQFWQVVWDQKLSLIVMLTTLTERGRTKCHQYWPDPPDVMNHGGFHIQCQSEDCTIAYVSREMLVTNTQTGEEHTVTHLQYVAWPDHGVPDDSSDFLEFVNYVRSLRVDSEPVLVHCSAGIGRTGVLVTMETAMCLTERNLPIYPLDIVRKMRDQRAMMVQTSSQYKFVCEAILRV
In words: PTP Enzyme Assay (DiFMUP), PTP-H1. It is filed as biochemical. The conditions noted are these: 5 μM DiFMUP, catalytic core of human recombinant PTP; read-out: IC50 value in respect of PTP-H1. The protocol: as §3
as §2, with “substrate.” for “substrate. Compounds to be tested were dissolved in 100% DMSO at a concentration of 2 mM. Subsequent dilutions of the test compounds (to yield a concentration of 100, 30, 10, 3, 1,0.3, 0.1, 0.03, 0.01, 0.001 μM) were performed in 60% DMSO manually. 8 μl of diluted compound or vehicle (60% DMSO=control) was distributed to a black Costar 96 well plate.”

A further assay relates to db/db mice. In words: In vivo assay in db/db mice (postprandial glycemia). The conditions noted are these: 30 mg/kg per os, 4 hrs after drug administration, percentage of control (group 1: vehicle treated mice). How it is done:
The following assay aims at determining the anti-diabetic effect of the test compounds of formula (I) in a model of postprandial glycemia in db/db mice, in vivo.
The assay was performed as follows:
A total of 18 db/db mice (about 8-9 weeks; obtained from IFFACREDO, l'Arbreste, France) were fasted during 20 hours.
2 groups, each consisting of 6 animals were formed: • Group 1: The animals were administered (per os) a dose of 10 mL/kg of vehicle (control). • Group 2: The animals were administered (per os) a dose of 30 mg/kg of the test compound according to formula (I) solubilized in the vehicle.
After oral administration of the compounds of formula (I) solubilized or suspended in CarboxyMethylCellulose (0.5%), Tween 20 (0.25%) and water as vehicle, the animals had access to conmnercial food (D04, UAR, Villeinoisson/Orge, France) ad libitum. The diabetic state of the mice was verified by determining the blood glucose level before drug administration. Blood glucose and serum insulin levels were then determined 4 hrs after drug administration.
The determination of the blood glucose level was performed using a glucometer (Precision Q.I.D., Medisense, Abbot, ref. 212.62.31).
The determination of the Insulin level was performed using an ELISA kit (Crystal CHEM, Ref. INSK R020).
Changes in blood glucose and serum insulin of drug treated mice were expressed as a percentage of control (group 1: vehicle treated mice).

Where [1] appears, read: 30 μM DiFMUP, catalytic core of human recombinant PTP, read-out: IC50 value in respect of GLEPP-1.

Structures can show the parent of a compound that is named as a salt. Where two headings read alike, the source gives them in different places.

One may read the IC50 as the point on the concentration scale where inhibition reaches its midpoint. `CCCCc1ccc(C#Cc2ccc(CN(Cc3ccc(OCC(=O)O)cc3)S(=O)(=O)/C=C/c3ccccc3)cc2)cc1` [Example 8, {4-[({4-[(4-butylphenyl)ethynyl]benzyl}{[(E)-2-phenylvinyl]sulfonyl}-amino)methyl]phenoxy}acetic acid]: the IC50 at PTP1B was found to be 510 nM; at GLEPP-1 (setting [1]), 620 nM; on SHP-1, 820 nM; at SHP-2, 800 nM; on PTP-H1 it was 9640 nM.

For the molecule `CCCCCCN(C(=O)c1ccc(C#Cc2ccc(CCCC)cc2)cc1)c1ccc(F)c(C(=O)O)c1` [Example 55, 5-[{4-[(4-butylphenyl)ethynyl]benzoyl}(hexyl)amino]-2-fluorobenzoic acid, N-methyl-D-glucamine (i.e. 1-deoxy-1-(methylamino)glucitol)salt], in the assay on db/db mice, the “Decrease in blood glucose” value was found to be 46% and the “Decrease in serum insulin” value is recorded as 75%.

With `CCCCCCN(Cc1ccc(C#Cc2ccccc2)cc1)c1ccc(F)c(C(=O)O)c1` [Example 30, 2-fluoro-5-{hexyl[4-(phenylethynyl)benzyl]amino}benzoic acid, N-methyl-D-glucamine (i.e. 1-deoxy-1-(methylamino)glucitol) salt], the IC50 came to 800 nM at PTP1B and 860 nM against GLEPP-1.

On to `CCCCc1ccc(C#Cc2ccc(CN(CCC(C)(C)C)c3ccc(F)c(C(=O)O)c3)cc2)cc1` [Example 35, 5-[{4-[(4-butylphenyl)ethynylbenzyl}(3,3-dimethylbutyl)amino]-2-fluorobenzoic acid, N-methyl-D-glucamine (i.e. 1-deoxy-1-(methylamino)glucitol)salt], for which the half-maximal inhibitory concentration (IC50) came out at 80 nM on PTP1B and 210 nM at GLEPP-1 (setting [1]).

Regarding `CCCCCCN(Cc1ccc(C#Cc2ccc(CCCC)cc2)cc1)C(=O)c1ccc(O)c(C(=O)O)c1` [Example 19, 5-[{{4-[(4-butylphenyl)ethynyl]benzyl}(hexyl)amino]carbonyl}-2-hydroxybenzoic acid, N-methyl-D-glucamine (i.e. 1-deoxy-1-(methylamino)-glucitol) salt], in the assay on db/db mice, the “Decrease in blood glucose” value was determined as 20% and the “Decrease in serum insulin” value is 43%.

Regarding “5-[(1-{4-[(4-butylphenyl)ethynyl]phenyl}pentyl)oxy]-2-hydroxybenzoic acid [Example 16]”, in the assay with db/db mice, the “Decrease in blood glucose” value amounted to 37% and the “Decrease in serum insulin” value is 28%.

The values above are taken from patent US7947851B2, “1,1′-(1,2-ethynediyl)bis-benzene derivatives as PTP 1-B inhibitors” (Merck Serono SA, priority 2004, dated 2011).
